Measured values from patent US20250268876A1, “TREATMENT OF HIDRADENITIS SUPPURATIVA WITH ORISMILAST” (UNION THERAPEUTICS A/S, priority 2021, published 2025).

Experiments:
[1] = biological target: PDE4A4 (Homo sapiens, UniProt P27815); test: biochemical
[2] = biological target: PDE4B3 (Homo sapiens, UniProt Q07343); assay type: biochemical
Protocol: (§1) Enzyme Preparations: Partially purified human recombinant phosphodiesterases (PDEs) were obtained by cloning cDNA and expressing in S. frugiperda insect cells using a baculovirus expression system. Cells are harvested from culture by centrifuging at 400×g for 5 minutes. Cell pellet is resuspended in 20 ml of RIPA Buffer (150 mM NaCl, 10 mM Tris, 0.1% NP-40, pH8.3), 4 ml/200 ml of culture, plus protease inhibitors (100 μl/10 ml) and incubated on ice for 10-20 minutes then spun at 3500×g for 10 minutes at 4° C. Supernatant is kept and the pellet thrown away.
(§2) Tritium-labelled cyclic AMP is hydrolysed to 5′-AMP o by PDE. The 5′-AMP is then further hydrolysed to adenosine by nucleotidase in snake venom. An anion-exchange resin binds all charged nucleotides and leaves [^3H]adenosine as the only labelled compound to be counted by liquid scintillation.
(§3) 50 μl of diluted PDE enzyme was incubated with 50 μl of [^3H]-cAMP (specific activity 25 Ci/mmol) and 11 μl of 50% DMSO (or compound dilution) for 20 minutes at 30° C. The enzyme was diluted in 20 mM Tris HCl pH7.4 (×2.2 final concentration) and [3H]-cAMP was diluted in 10 mM MgCl2, 40 mM Tris HCl pH 7.4 (×2.2 final concentration). Reactions were carried out in Greiner 96 deep well 1 ml master-block. The plates were centrifuged for 9 seconds before the 20 minutes incubation. […] After incubation 200 μl Dowex resin (1×8, 200-400 mesh) was added and the plate shaken for 20 minutes then centrifuged for 3 minutes at 1000×g. 50 μl of supernatant was removed and added to 200 μl of MicroScint-20 in white plates (Greiner 96well Optiplate) and shaken for 30 minutes before reading on Perkin Elmer TopCount Scintillation Counter. IC50 values were calculated using GraphPad Prism software (version 8).

[3] = biological target: T1, PDE4B2 (Homo sapiens, UniProt Q07343); assay type: biochemical
T1 sequence (Q07343 1-564 isoform Q07343-2): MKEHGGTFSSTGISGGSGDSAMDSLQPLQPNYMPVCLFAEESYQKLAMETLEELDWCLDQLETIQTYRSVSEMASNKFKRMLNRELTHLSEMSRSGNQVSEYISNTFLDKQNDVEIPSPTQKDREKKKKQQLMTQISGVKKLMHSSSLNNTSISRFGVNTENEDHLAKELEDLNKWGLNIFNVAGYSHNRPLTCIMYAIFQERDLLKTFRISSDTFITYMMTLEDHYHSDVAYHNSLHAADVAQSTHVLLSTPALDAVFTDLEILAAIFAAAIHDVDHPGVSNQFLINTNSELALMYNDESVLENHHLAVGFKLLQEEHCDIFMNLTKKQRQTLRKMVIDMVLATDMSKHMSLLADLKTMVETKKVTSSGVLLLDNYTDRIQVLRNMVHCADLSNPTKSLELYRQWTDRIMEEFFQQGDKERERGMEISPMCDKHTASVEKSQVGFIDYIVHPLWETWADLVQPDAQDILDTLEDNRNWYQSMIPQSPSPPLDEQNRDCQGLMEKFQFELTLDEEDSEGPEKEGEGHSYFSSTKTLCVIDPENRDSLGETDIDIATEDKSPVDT
Protocol: as §1, §2, §3

[4] = biological target: PDE4D1 (Homo sapiens, UniProt Q08499); assay type: biochemical
Protocol: as §1, §2, §3

[5] = biological target: PDE4D3 (Homo sapiens, UniProt Q08499); assay type: biochemical
Chain of PDE4D3 (Q08499 1-673 isoform Q08499-2): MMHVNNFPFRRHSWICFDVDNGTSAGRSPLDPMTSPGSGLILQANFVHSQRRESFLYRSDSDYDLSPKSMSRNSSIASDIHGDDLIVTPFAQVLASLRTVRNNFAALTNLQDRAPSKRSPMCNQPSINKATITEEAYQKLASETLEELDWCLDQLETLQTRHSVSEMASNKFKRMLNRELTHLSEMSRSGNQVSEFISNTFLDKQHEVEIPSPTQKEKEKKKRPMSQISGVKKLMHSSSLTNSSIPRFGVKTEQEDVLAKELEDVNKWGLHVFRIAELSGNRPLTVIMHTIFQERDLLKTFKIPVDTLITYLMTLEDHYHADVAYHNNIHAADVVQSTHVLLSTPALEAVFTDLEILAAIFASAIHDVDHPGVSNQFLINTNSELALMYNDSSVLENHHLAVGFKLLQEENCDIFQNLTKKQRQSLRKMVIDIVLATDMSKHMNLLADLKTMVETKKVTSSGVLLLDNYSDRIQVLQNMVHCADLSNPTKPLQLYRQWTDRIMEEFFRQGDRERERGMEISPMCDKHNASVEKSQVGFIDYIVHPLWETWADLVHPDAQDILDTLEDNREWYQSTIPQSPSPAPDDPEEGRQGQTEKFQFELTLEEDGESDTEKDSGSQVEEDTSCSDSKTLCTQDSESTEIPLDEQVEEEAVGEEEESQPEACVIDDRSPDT
Protocol: as §1, §2, §3

[6] = biological target: PDE4B1 (Homo sapiens, UniProt Q07343); assay type: biochemical
Protocol: as §1, §2, §3

[7] = biological target: PDE4D7 (Homo sapiens, UniProt Q08499); assay type: biochemical
Protocol: as §1, §2, §3

[8] = biological target: PDE4D2 (Homo sapiens, UniProt Q08499); assay type: biochemical
Chain of PDE4D2 (Q08499 303-809): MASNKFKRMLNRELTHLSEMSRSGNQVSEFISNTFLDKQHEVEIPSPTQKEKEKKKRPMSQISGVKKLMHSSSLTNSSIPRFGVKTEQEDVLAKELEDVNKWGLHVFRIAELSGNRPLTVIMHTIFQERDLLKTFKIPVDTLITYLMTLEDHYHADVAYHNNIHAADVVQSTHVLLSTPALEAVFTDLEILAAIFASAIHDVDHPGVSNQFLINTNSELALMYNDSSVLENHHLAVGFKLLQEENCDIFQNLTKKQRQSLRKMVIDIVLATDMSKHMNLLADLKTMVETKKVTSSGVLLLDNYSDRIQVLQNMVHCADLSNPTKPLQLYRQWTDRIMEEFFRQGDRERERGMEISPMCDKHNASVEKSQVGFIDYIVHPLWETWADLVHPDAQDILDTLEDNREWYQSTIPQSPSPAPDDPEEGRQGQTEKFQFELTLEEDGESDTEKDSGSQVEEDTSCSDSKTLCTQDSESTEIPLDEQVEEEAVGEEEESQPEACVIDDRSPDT
Protocol: as §1, §2, §3

[9] = biological target: T2, PDE4C2 (Homo sapiens, UniProt Q08493); assay type: biochemical
T2 sequence (Q08493 107-712): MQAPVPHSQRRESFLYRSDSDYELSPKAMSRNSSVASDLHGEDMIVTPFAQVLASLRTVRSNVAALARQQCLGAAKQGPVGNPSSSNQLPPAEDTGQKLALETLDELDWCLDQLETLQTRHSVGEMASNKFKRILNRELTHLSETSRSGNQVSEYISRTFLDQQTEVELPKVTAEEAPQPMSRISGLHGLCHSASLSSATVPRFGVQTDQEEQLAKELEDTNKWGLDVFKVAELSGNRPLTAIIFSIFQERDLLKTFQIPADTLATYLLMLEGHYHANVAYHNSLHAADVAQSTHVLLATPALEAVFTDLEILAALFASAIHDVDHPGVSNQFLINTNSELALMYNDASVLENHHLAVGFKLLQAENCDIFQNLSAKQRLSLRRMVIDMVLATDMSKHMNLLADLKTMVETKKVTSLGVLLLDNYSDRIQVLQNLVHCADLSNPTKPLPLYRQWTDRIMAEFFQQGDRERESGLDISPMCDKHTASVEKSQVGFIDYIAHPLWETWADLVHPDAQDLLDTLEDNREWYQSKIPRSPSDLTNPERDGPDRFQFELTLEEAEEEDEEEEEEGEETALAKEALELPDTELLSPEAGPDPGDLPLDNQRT
Protocol: as §1, §2, §3

[10] = biological target: PDE4D5 (Homo sapiens, UniProt Q08499); assay type: biochemical
Chain of PDE4D5 (Q08499 1-745 isoform Q08499-6): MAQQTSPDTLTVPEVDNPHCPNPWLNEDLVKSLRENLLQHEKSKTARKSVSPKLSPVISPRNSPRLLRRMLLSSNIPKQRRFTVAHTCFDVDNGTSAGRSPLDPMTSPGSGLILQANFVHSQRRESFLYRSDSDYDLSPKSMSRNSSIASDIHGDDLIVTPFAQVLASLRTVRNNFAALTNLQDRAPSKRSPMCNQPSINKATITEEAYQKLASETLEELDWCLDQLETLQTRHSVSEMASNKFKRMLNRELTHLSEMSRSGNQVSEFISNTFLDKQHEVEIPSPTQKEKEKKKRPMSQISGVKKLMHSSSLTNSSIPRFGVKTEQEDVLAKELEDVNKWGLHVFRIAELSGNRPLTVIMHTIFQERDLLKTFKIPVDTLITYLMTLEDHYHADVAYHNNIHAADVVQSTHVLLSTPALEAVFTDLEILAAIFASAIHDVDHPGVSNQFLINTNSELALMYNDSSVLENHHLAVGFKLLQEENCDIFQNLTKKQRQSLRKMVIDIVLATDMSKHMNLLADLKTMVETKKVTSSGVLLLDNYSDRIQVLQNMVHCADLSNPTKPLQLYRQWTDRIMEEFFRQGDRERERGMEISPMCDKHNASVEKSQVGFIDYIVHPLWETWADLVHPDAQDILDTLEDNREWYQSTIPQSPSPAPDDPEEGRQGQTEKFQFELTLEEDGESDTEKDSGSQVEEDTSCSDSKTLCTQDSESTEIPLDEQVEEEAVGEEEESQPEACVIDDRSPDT
Protocol: as §1, §2, §3

[11] = biological target: PDE4D4 (Homo sapiens, UniProt Q08499); assay type: biochemical
Protocol: as §1, §2, §3

[12] = tested on: TNF-α; test: LPS-induced TNF-α in ferrets after single oral administration; settings: oral 1, 3 and 10 mg/kg; 1 hour after LPS (3 mg/kg ip)
[13] = biological target: T2, PDE4C2; test: IMAP fluorescence polarisation PDE4 subtype assay; assay type: biochemical
[14] = biological target: T1, PDE4B2; test: IMAP fluorescence polarisation PDE4 subtype assay; assay type: biochemical
Protocol: Inhibition of PDE4 subtypes by the compound of formula (I) was tested using IMAP technology, which is based on the high affinity binding of phosphate by immobilized metal coordination complexes on nanoparticles. The binding reagent complexes with phosphate groups on nucleotide monophosphate generated from cyclic nucleotides (cAMP/cGMP) through phosphodiesterases. With fluorescence polarisation detection, binding causes a change in the rate of the molecular motion of the phosphate bearing molecule, and results in an increase in the fluorescence polarization value observed for the fluorescent label attached to the substrate.
Stocks of the compound of formula (I) were prepared in 100% DMSO. All assays were performed in 3% (final) DMSO for the IMAP assay. The compound was tested in duplicate against the PDE isoform panel at a range of concentrations (10^−10, 10^−9, 10^−8, 10^−7 M).

[15] = tested on: IFN-γ; test: Human whole blood cytokine secretion assay (TruCulture); assay type: cell-based; settings: read-out: % inhibition at 20 nM, IFN-γ, mean of 3 experiments
Protocol: (§4) TruCulture blood collection and incubation tubes were tested with fresh human whole blood with or without addition of 20 nM of the compound of formula (I). The best results were obtained using heparin-stabilised blood and anti-CD3/CD28 test tubes.

[16] = tested on: IL-13; test: as above; assay type: cell-based; settings: 20 nM
Protocol: as §4

[17] = tested on: TNF-α; test: as above; assay type: cell-based; settings: read-out: % inhibition at 20 nM, TNF-α, mean of 3 experiments
Protocol: as §4

[18] = tested on: IL-8; test: as above; assay type: cell-based; settings: 20 nM
Protocol: as §4

[19] = tested on: IL-1; test: as above; assay type: cell-based; settings: read-out: % inhibition at 20 nM, IL-1, mean of 3 experiments
Protocol: as §4

[20] = tested on: IL-2; test: as above; assay type: cell-based; settings: read-out: % inhibition at 20 nM, IL-2, mean of 3 experiments
Protocol: as §4

[21] = tested on: IL-4; test: as above; assay type: cell-based; settings: read-out: % inhibition at 20 nM, IL-4, mean of 3 experiments
Protocol: as §4

[22] = biological target: PDE4A10 (Homo sapiens, UniProt P27815); test: biochemical

Chain of PDE4B3 (Q07343 1-721 isoform Q07343-3): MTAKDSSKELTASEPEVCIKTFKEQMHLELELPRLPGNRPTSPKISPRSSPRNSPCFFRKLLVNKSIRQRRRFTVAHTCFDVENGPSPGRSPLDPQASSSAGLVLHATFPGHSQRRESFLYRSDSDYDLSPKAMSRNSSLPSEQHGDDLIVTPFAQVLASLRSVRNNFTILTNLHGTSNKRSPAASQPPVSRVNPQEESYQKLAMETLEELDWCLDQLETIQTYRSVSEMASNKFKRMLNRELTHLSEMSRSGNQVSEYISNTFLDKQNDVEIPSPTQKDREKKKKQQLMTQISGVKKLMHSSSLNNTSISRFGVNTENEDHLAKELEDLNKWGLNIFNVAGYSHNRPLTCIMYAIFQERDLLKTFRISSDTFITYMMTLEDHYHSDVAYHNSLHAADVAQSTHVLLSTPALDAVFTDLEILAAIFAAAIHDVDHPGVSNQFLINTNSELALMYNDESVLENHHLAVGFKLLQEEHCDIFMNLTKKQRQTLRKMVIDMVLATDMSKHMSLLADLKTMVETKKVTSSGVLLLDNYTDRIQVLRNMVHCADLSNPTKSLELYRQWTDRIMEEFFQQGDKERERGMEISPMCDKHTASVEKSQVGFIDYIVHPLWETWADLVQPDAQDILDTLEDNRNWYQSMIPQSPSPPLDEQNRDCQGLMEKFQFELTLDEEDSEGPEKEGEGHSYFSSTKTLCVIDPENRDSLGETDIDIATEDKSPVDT
Chain of PDE4A4 (P27815 whole entry): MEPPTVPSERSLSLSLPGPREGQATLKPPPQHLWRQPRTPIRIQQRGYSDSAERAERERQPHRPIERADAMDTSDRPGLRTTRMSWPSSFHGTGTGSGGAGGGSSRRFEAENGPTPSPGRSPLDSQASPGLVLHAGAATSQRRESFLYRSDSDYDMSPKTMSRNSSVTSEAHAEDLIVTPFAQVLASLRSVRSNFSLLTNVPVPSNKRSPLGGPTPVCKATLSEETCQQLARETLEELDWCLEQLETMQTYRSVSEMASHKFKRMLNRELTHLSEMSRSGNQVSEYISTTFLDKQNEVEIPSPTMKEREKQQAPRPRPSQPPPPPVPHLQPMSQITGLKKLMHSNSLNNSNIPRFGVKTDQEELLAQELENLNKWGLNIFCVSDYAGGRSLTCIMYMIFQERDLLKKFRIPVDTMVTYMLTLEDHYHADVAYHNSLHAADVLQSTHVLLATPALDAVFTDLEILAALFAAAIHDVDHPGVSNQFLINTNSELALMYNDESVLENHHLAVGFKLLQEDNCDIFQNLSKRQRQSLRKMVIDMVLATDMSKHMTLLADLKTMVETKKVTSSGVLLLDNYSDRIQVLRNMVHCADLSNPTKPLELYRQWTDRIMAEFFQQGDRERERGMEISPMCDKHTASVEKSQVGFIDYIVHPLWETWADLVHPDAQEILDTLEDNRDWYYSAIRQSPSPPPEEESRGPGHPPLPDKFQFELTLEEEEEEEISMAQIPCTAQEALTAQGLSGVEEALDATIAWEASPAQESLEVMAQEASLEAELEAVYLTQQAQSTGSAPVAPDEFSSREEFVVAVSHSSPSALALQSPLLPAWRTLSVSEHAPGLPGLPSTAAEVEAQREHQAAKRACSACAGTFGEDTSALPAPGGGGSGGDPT

SMILES: O=C(Cc1c(Cl)c[n+]([O-])cc1Cl)c1ccc(OC(F)F)c2c1OC1(CCS(=O)(=O)CC1)O2 [Compound (I), 2-(3,5-Dichloro-1-oxido-pyridine-4-yl)-1-(7-difluoro-methoxy-2′,3′,5′,6′-tetrahydro-spiro[1,3-benzodioxole-2,4′-(4H)-thiopyran-1′,1′-dioxide]-4-yl)ethanone]
- IC50 [1]: 11 nM
- IC50 [2]: 3 nM
- IC50 [3]: 6 nM
- IC50 [4]: 9 nM
- IC50 [5]: 8 nM
- IC50 [6]: 16 nM
- IC50 [7]: 3 nM
- IC50 [8]: 9 nM
- IC50 [9]: 104 nM
- IC50 [10]: 3 nM
- IC50 [11]: 8 nM
- increase of TNF-α levels observed at 1 hour [12]: attenuated, in a clear dose-related manner
- Inhibition (%) ([13]; compound 10^−7 M (100 nM)): not significantly inhibited
- inhibition at 0.0001 µM ([13]; compound 10^−10 M): 9%
- inhibition at 0.1 µM ([14]; compound 10^−7 M): 61%
- inhibition at 0.01 µM ([14]; compound 10^−8 M): 41%
- inhibition at 0.001 µM ([14]; compound 10^−9 M): 18%
- inhibition at 0.0001 µM ([14]; compound 10^−10 M): 12%
- inhibition at 0.02 µM [15]: 54%
- Inhibition of IL-13 secretion (in words) [16]: not clearly inhibited
- inhibition at 0.02 µM [17]: 60%
- Inhibition of IL-8 secretion (in words) [18]: not clearly inhibited
- inhibition at 0.02 µM [19]: 40%
- inhibition at 0.02 µM [20]: 50%
- inhibition at 0.02 µM [21]: 44%
- IC50 [22]: 52 nM
